These results are taken from patent US4018778A, “Derivatives of 1-phenoxy-3-amino-propane-2-ol and process for their production” (Cassella Farbwerke Mainkur Aktiengesellschaft, priority 1972, dated 1977).

Data set [1] has as its system dp/dt (left ventricular blood pressure). The experiment in a line: Intrinsic (inotropic) action on the dp/dt. It is filed as in vivo, dogs. To be noted: number of - and + signs indicates strength of the effect.
Data set [2] deals with changes of the dp/dt max. after isoproterenol (left ventricular blood pressure). Put plainly: Antagonism of isoproterenol-induced change of left ventricular dp/dt max. in narcotised dogs (catheter tip manometer). It is filed as in vivo. As to conditions: Canis lupus familiaris, iv, isoproterenol 0.5·10^-6 gram/kg i.v., cumulative doses of test substance. The protocol: Isoproterenol (0.5 ^. 10^-^6 gram/kg i.v.) was injected at intervals of 15 minutes before and after increasing doses of the test substance. The changes of the dp/dt max. after isoproterenol were determined before and after the intravenous administration of the test substance. These values were used to calculate the ED50. The doses quoted in each case are the cumulative doses of the test substance.

The subject of data set [3] is heart (inotropic intrinsic action). As to conditions: words, cited from earlier work.

On to `CC(CC(O)c1cccnc1)NCC(O)COc1ccccc1-c1ccccc1` (stereo not drawn) [1-(3'-β-Pyridyl-3'-hydroxy-1'-methyl-propylamino)-3-(o-phenylphenoxy)-propan-2-ol], for which the “Intrinsic action on the dp/dt” value in data set [1] was found to be 0.
What is called ED50 is the midpoint of the dose-response relation. Compound `CCOc1ccc(OCC(O)CNC(C)CC(O)c2cccnc2)cc1` (stereo not drawn) [1-(3'-β-pyridyl-3'-hydroxy-1'-methyl-propylamino)-3-(p-ethoxyphenoxy)-propan-2-ol] displayed an ED50 in data set [2] of 0.0448 mg/kg.
For the compound `CC(CC(O)c1cccnc1)NCC(O)COc1ccccc1Cl` (stereo not drawn) [1-(3'-β-pyridyl-3'-hydroxy-1'-methyl-propylamino)-3-(o-chlorophenoxy)-propan-2-ol], the “Intrinsic action on the dp/dt” value in data set [1] is recorded as 0. The compound further had a median effective dose (ED50) in data set [2] of 0.0082 mg/kg.
In turn, `COc1cccc(OCC(O)CNC(C)CC(O)c2cccnc2)c1` (stereo not drawn) [1-(3'-β-pyridyl-3'-hydroxy-1'-methyl-propylamino)-3-(m-methoxyphenoxy)-propan-2-ol] displayed an ED50 in data set [2] of 0.012 mg/kg.
`CC(C)NCC(O)COc1cccc2ccccc12` (stereo not drawn) [Propranolol]: the “inotropic intrinsic action (clinical practice)” value in data set [3] was “strongly negative-inotropic intrinsic action”. The cardiac insufficiency risk entry in data set [3] (clinical practice) is given as “capable of causing an acute cardiac insufficiency or liable to intensify an already existing cardiac insufficiency”. It took a dose of 0.0561 mg/kg to reach the 50% effect level in data set [2] (ED50).
Compound `C=CCc1ccccc1OCC(O)CNC(C)CC(O)c1cccnc1` (stereo not drawn) [1-(3'-β-pyridyl-3'-hydroxy-1'-methyl-propylamino)-3-(o-allylphenoxy)-propan-2-ol] returned an ED50 in data set [2] of 0.0178 mg/kg.
Still for that read-out and setting: then `C=CCOc1ccccc1OCC(O)CNC(C)CC(O)c1cccnc1` (stereo not drawn) [1-(3'-β-pyridyl-3'-hydroxy-1'-methyl-propylamino)-3-(o-allyloxyphenoxy)-propan-2-ol], with 0.008 mg/kg; and `CCCOc1ccc(OCC(O)CNC(C)CC(O)c2cccnc2)cc1` (stereo not drawn) [1-(3'-β-pyridyl-3'-hydroxy-1'-methyl-propylamino)-3-(p-propoxyphenoxy)-propan-2-ol], with 0.0167 mg/kg.
Take `CCCCCOc1ccc(OCC(O)CNC(C)CC(O)c2cccnc2)cc1` (stereo not drawn) [1-(3'-β-pyridyl-3'-hydroxy-1'-methyl-propylamino)-3-(p-pentoxyphenoxy)-propan-2-ol]: the “Intrinsic action on the dp/dt” value in data set [1] is 0. In data set [2], this compound yielded an ED50 of 0.0184 mg/kg.
With `CCOc1ccc(OCC(O)CNC(C)CC(O)c2cccnc2)cc1` (single isomer, unassigned; (-)) [(-)-1-(3'-β-pyridyl-3'-hydroxy-1'-methyl-propylamino)-3-(p-ethoxyphenoxy)-propan-2-ol, laevo-rotatory], the “Intrinsic action on the dp/dt” value in data set [1] turned out to be 0.
In data set [2], `Cc1cccc(OCC(O)CNC(C)CC(O)c2cccnc2)c1` (stereo not drawn) [1-(3'-β-pyridyl-3'-hydroxy-1'-methyl-propylamino)-3-(m-methylphenoxy)-propan-2-ol] gave a 50% effective dose (ED50) of 0.0175 mg/kg.
As for `CC(=O)Nc1ccc(OCC(O)CNC(C)CC(O)c2cccnc2)cc1` (stereo not drawn) [1-(3'-β-pyridyl-3'-hydroxy-1'-methyl-propylamino)-3-(p-acetamino-phenoxy)-propan-2-ol], in data set [2], it took a dose of 0.0146 mg/kg to reach the 50% effect level (ED50).
On the same count and under the same terms, then `CC(CC(O)c1cccnc1)NCC(O)COc1ccc(Cl)cc1` (stereo not drawn) [1-(3'-β-pyridyl-3'-hydroxy-1'-methyl-propylamino)-3-(p-chlorophenoxy)-propan-2-ol], with 0.03 mg/kg.
On to `CCOc1ccccc1OCC(O)CNC(C)CC(O)c1cccnc1` (stereo not drawn) [1-(3'-β-Pyridyl-3'-hydroxy-1'-methyl-propylamino)-3-(o-ethoxyphenoxy)-propan-2-ol], for which, in data set [1], the “Intrinsic action on the dp/dt” value came out at 0. This compound also came in with an ED50 in data set [2] of 0.0151 mg/kg.
In data set [2], `CCOc1ccccc1OCC(O)CNC(C)CC(O)c1cccnc1` (single isomer, unassigned; (-)) [(-)-1-β-Pyridyl-3-[3-(o-ethoxyphenoxy)-2-hydroxy-propylamino]-butan-1-ol (laevo-rotatory)] gave an ED50 of 0.0026 mg/kg.
For the compound `COc1ccccc1OCC(O)CNC(C)CC(O)c1cccnc1` (stereo not drawn) [1-(3'-β-pyridyl-3'-hydroxy-1'-methyl-propylamino)-3-(o-methoxyphenoxy)-propan-2-ol], it took a dose of 0.006 mg/kg to reach the 50% effect level in data set [2] (ED50).
